{
  "source": "paper PMC7920280",
  "about": "“The Multi-Targeting Ligand ST-2223 with Histamine H3 Receptor and Dopamine D2/D3 Receptor Antagonist Properties Mitigates Autism-Like Repetitive Behaviors and Brain Oxidative Stress in Mice” (International Journal of Molecular Sciences, 2021)",
  "key": {"[1]": {"system": "oxidative stress markers (e.g., MDA and GSH)", "parameters": "method as in PMID 27833522, PMID 27089413, PMID 22331799", "settings": "amphetamine- or dizocilpine-augmented oxidative stress, mouse model of schizophrenia; cited from earlier work"}, "[2]": {"system": "mice with valproic acid (VPA)-induced ASD", "settings": "cited from earlier work"}, "mice sensitized with PCP": {"system": "mice sensitized with PCP", "settings": "acute low dose of PCP in mice sensitized by repeated high-dose PCP; cited from earlier work"}, "BTBR and B6 mice [3]": {"system": "BTBR and B6 mice", "assay": "Marble burying task (MBT)", "format": "in vivo", "settings": "BTBR mice", "description": "(§1) The drugs tested included ST-2223 [N-(4-(4-(2-methoxyphenyl)piperazin-1-yl)butyl)-6-(3-(piperidin-1-yl)propoxy)-2-naphthamide] that was designed and synthesized in the Institute of Pharmaceutical and Medicinal Chemistry, Heinrich Heine University Düsseldorf, Germany, and in accordance with previously described methodologies (Supplementary Materials). Aripiprazole (ARP) (1 mg/kg, i.p.) and memantine (MEM, 5 mg/kg, i.p.), as reference drugs, were purchased from Sigma-Aldrich (St. Louis, MO, USA). The CNS-penetrant H3R agonist (R)-α-methylhistamine (RAM, 10 mg/kg, i.p.) was purchased from Sigma-Aldrich, St. Louis, MO, USA. T. Protease and the phosphatase inhibitor cocktail were procured from Thermo Scientific, USA. The assay kit for reduced glutathione (GSH) was obtained from Sigma-Aldrich (St. Louis, MO, USA). The lipid peroxidation assay kit for estimation of malondialdehyde (MDA) was purchased from North West Life Science (Vancouver, WA, USA). The assay kits for superoxide dismutase (SOD) and catalase (CAT) were purchased from Cayman Chemical (Ann Arbor, MI, USA). The drugs were prepared daily using 1% dimethyl sulfoxide (DMSO) in 0.9% saline, for intraperitoneal (i.p.) administration at a volume of 10 mL/kg of body weight. Vehicle treatment consisted of 1% DMSO in 0.9% normal saline. All drugs were i.p. administered 30 min before the behavioral test. The doses of these drugs were chosen based on previous reports. Neurobehavioral assessment was performed blindly with respect to experimental group and drug administration.\nThe MBT is used for testing repetitive and compulsive behaviors as it accurately reflects repetitive digging behavior [95, 96]. The test was performed as described previously, with slight modifications. Briefly, cages (26 cm × 48 cm × 20 cm) were filled with fresh, unscented mouse bedding material to a depth of 5 cm, on top of which 20 marbles were placed in 4 rows of 5 marbles each (15 mm diameter). Before placing the marbles, the bedding surface was leveled by placing another cage of the same size onto the surface of the bedding and then each mouse was individually added for 10 min habituation. After habituation, the mouse was removed, and the marbles were carefully overlaid. The same mouse was then returned to its designated test cage and allowed to explore for 30 min. The total number of marbles buried (>50% marble covered by the bedding material) was determined at the end of the session."}, "BTBR and B6 mice [4]": {"system": "BTBR and B6 mice", "assay": "Open field test (OFT): locomotor activity and anxiety levels", "format": "in vivo", "settings": "BTBR mice", "description": "as §1\nThe open field test (OFT) systematically evaluates exploration behaviors executed in a novel open field (considered as a novel environment), as an independent control for the effects of the drugs on physical activity that could confound the interpretation of the results from the self-grooming, anxiety and spontaneous alternation. Mice were allowed to freely explore an open-field arena (45 × 45 × 30 cm), to assess general locomotor activity, and anxiety-related behaviors. The center arena was defined as the central 23 × 23 cm area. Mice were given 5 min to habituate in the center area of the arena before the recording started for the actual behavioral assessments. Recording lasted for 10 min using charge-coupled device (CCD) camera-assisted motion tracking apparatus and software (EthoVision 3.1, Noldus Information Technology, The Netherlands), and the total distance moved in the whole arena, time spent in the center and periphery were recorded. Test chambers were cleaned with 70% ethanol after each trial and were allowed to dry until ethanol evaporation and odor dissipation had occurred. When interpreting the results observed in this assessment, less time spent in the center was considered as an indicator for high levels of anxiety-like behaviors and total distance travelled signified the overall locomotor activity of tested animals."}, "BTBR and B6 mice [5]": {"system": "BTBR and B6 mice", "assay": "Spontaneous alternation behavior (SAB), Y maze", "format": "in vivo", "settings": "BTBR mice; RAM 10 mg/kg i.p. co-administered with ST-2223 5 mg/kg", "description": "as §1\nThe SAB test is based on the exploratory strategy of rodents to explore a new environment. In examining repetitive behaviors, the Y maze test took advantage of the rodents’ natural tendency to spontaneously alternate or choose a different arm of the maze instead of the one they visited on their previous entry (i.e., least recently visited arm). A decrease in the percentage alternation can also be attributed to same arm repeated visits. Spontaneous alternation behavior was measured on a Y maze apparatus, as previously described, with slight modifications. The Y maze composed of three arms (30 cm × 6 cm × 15 cm), where the arms were labeled with letters: A, B, or C. The test mouse was placed in the center of the maze and was allowed to freely explore the maze for 8 min. The number of entries into each arm and the total number of entries were recorded by the observer. A spontaneous alternation was defined as successive entry into three arms on an overlapping triplet set. Percentage spontaneous alternation was calculated as the number of spontaneous alternations (actual alternations) over the total number of entries (possible alternations). Two arm entries were subtracted from the denominator because an alternation required at least 3 entries. The apparatus was cleaned with 70% alcohol solution after each mouse was tested. (1) Percentage spontaneous alternations=Total alternations/(Total arm entries − 2) ×100"}, "BTBR and B6 mice [6]": {"system": "BTBR and B6 mice", "assay": "Self-grooming paradigm (SGP)", "format": "in vivo", "settings": "BTBR mice; RAM 10 mg/kg i.p. co-administered with ST-2223 5 mg/kg", "description": "as §1\nIn the SGP test, mice were scored for spontaneous grooming behaviors. […] To measure SGP, each mouse was placed individually in a standard clear plastic cage (28 cm wide × 17 cm long × 12 cm high) for a total of 20 min. Mice were allowed to freely explore the cage for the entire test, the first 10 min served as a habituation period. After 10 min habituation, each mouse was scored with a stopwatch for 10 min for cumulative time spent grooming all body regions. Grooming behavior included head washing, body grooming, genital/tail grooming and paw and leg licking. The observer sat approximately 1 m from the test cage during the second 10 min of testing."}, "[7]": {"settings": "RAM 10 mg/kg i.p. co-administered with ST-2223 5 mg/kg"}},
  "data": [
    {"smiles": "O=C(c1ccc(OCCCc2cnc[nH]2)cc1)C1CC1", "note": "[ciproxifan]", "values": [
      {"measurement": "oxidative stress markers (e.g., MDA and GSH)", "setting": "[1]", "result": "mitigated"},
      {"measurement": "repetitive behavior in the MBT", "setting": "[2]; mice with VPA-induced ASD", "result": "reduced repetitive behavior"}
    ]},
    {"smiles": "CCC(C)(C)c1ccc(OCCCN2CCCCC2)cc1", "note": "[DL77]", "values": [
      {"measurement": "percentage of marbles buried", "setting": "[2]; adult male Tuck-Ordinary mice with VPA-induced ASD features, subchronic 5, 10, 15 mg/kg, i.p.", "result": "significant and dose-dependent"}
    ]},
    {"smiles": "NC(=NCc1ccc(Cl)cc1)SCCCc1cnc[nH]1", "note": "[clobenpropit]", "values": [
      {"measurement": "oxidative stress markers (e.g., MDA and GSH)", "setting": "[1]", "result": "mitigated"}
    ]},
    {"smiles": "CN1CCCC1CCNS(=O)(=O)c1ccc2c(c1)CN(CC1CCCCC1)CC2", "note": "(centres unmarked) [SAR110894]", "values": [
      {"measurement": "deficit in working memory in the Y maze test", "setting": "mice sensitized with PCP", "result": "reversed"}
    ]},
    {"smiles": "C[C@@H](N)Cc1c[nH]cn1", "note": "[RAM, (R)-α-methylhistamine]", "values": [
      {"measurement": "marble burying behavior vs saline-treated BTBR mice, given alone", "setting": "BTBR and B6 mice [3]; RAM 10 mg/kg i.p. alone", "result": "did not alter"},
      {"measurement": "effect of co-administration on the ST-2223 (5 mg)-stimulated decrease in percentage of buried marbles", "setting": "BTBR and B6 mice [3]; [7]", "result": "reversed"},
      {"measurement": "time spent in the center (OFT) vs saline-treated BTBR mice, given alone", "setting": "BTBR and B6 mice [4]; RAM 10 mg/kg i.p. alone", "result": "did not induce any alternation"},
      {"measurement": "effect of co-administration on the ST-2223 (5 mg)-induced increase in time spent in the center (OFT)", "setting": "BTBR and B6 mice [4]; [7]", "result": "not reversed"},
      {"measurement": "effect of co-administration on the ST-2223 (5 mg)-induced enhancement in alternation", "setting": "BTBR and B6 mice [5]", "result": "entirely reversed"},
      {"measurement": "effect of co-administration on the ST-2223 (5 mg)-induced decrease in time spent self-grooming", "setting": "BTBR and B6 mice [6]", "result": "nullified"}
    ]}
  ]
}
